Literature values, collected in US20100255088A1 (priority 2009, published 2010).
Where two headings read alike, the source gives them in different places.

Key:
[1] = not given; remark: listed apart in the source
platelet aggregation = conditions: aspirin resistance group of patients
[2] = system: yeast and primitives animals; conditions: high resveratrol levels artificially maintained
[3] = system: isolated pig retinal artery; conditions: through the NO system and prostacycline secretion
H+/K+ ATPase = H+/K+ ATPase (Homo sapiens, UniProt P20648); conditions: Life Sciences 66(8), 2000, 663-673
H+/K+ ATPase, sequence (P20648 whole entry): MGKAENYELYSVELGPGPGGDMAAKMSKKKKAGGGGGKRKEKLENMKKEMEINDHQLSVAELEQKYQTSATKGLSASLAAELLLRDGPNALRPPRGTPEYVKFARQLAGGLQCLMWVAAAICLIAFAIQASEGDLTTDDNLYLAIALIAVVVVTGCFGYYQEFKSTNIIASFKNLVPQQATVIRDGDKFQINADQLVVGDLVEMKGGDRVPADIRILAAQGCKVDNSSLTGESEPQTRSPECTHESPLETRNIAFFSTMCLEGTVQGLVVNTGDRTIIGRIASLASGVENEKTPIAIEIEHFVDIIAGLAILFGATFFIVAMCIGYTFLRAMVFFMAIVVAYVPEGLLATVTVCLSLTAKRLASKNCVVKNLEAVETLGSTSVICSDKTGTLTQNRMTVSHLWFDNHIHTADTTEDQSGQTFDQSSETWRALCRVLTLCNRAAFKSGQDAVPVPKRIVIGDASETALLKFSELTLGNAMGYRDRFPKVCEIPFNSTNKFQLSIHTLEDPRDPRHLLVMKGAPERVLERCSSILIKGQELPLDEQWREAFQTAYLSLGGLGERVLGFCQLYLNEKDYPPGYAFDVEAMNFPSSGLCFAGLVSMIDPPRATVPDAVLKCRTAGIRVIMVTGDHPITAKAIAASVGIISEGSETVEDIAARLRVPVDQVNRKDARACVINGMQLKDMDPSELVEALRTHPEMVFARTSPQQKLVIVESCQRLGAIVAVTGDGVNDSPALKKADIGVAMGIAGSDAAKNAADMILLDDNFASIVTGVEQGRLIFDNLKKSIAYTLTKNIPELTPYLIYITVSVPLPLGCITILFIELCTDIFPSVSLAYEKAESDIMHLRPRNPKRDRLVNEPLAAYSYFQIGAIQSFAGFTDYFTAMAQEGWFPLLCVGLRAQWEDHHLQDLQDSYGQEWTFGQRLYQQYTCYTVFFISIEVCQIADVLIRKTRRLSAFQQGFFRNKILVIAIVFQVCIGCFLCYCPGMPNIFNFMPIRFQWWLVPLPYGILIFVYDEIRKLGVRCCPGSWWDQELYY
H+/K+ ATPase, sequence (P51164 whole entry partner): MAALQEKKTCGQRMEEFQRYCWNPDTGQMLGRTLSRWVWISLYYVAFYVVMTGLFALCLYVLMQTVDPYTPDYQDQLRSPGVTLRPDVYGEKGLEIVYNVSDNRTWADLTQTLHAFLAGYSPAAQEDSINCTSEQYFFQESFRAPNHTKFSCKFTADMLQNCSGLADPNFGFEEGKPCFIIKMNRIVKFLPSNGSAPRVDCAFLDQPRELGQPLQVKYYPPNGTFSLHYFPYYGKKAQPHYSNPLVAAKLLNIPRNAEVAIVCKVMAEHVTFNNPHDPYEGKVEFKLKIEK

SMILES | patients with reduced mortality (at least 325 mg daily for ten years) | incidence of various human carcinomas (full dose aspirin for ten years and above) | patients with reduced mortality (higher doses for ten years) | water solubility [1] | platelet aggregation inhibition (platelet aggregation) | life span [2] | vasodilating effect [3] | hydrochloric acid production (H+/K+ ATPase)
CC(=O)Oc1ccccc1C(=O)O [aspirin, acetyl salicylic acid] | 50% | halved | 75% | not water-soluble |  |  |  | 
Oc1ccc(C=Cc2cc(O)cc(O)c2)cc1 [resveratrol] |  |  |  |  | optimal platelet aggregation inhibition | doubling the life span | strong vasodilating effect | reducing significantly the hydrochloric acid production
